# Where “and” joins values, the source holds several entries; their conditions need not be identical. Equal values may be shown once. Toxic doses and inconclusive results are not listed.
# System: BDF1 mice, Lewis lung carcinoma iv, survival T/C
# Assay: NCI In Vivo Anticancer Drug Screen. Data for tumor model Lewis Lung Carcinoma (intravenous) in B6D2F1 (BDF1) mice
# Settings: endpoint: median survival time, higher = longer survival
# Method: The antitumor activity of compounds was measured in mice bearing transplantable tumors. Survival or tumor size were measured and the results are expressed as the measurement made in the treated group (T) divided by the measurement made in the vehicle treated control group (C). The tumor model used in this assay is Lewis Lung Carcinoma (intravenous) in B6D2F1 (BDF1) mice
# [1] = dose: 12.5 mg/kg/injection, schedule: Q01DX009 (ip), vehicle: Klucel (hydroxypropylcellulose) (HPC)
# [2] = dose: 25.0 mg/kg/injection, schedule: Q01DX009 (ip), vehicle: Klucel (hydroxypropylcellulose) (HPC)
# [3] = dose: 50.0 mg/kg/injection, schedule: Q01DX009 (ip), vehicle: Klucel (hydroxypropylcellulose) (HPC)
# [4] = dose: 100.0 mg/kg/injection, schedule: Q01DX009 (ip), vehicle: Klucel (hydroxypropylcellulose) (HPC)
# [5] = dose: 1.0 mg/kg/injection, schedule: Q01DX009 (ip), vehicle: saline with Tween-80
# [6] = dose: 2.0 mg/kg/injection, schedule: Q01DX009 (ip), vehicle: saline with Tween-80
# [7] = dose: 4.0 mg/kg/injection, schedule: Q01DX009 (ip), vehicle: saline with Tween-80
# [8] = dose: 8.0 mg/kg/injection, schedule: Q01DX009 (ip), vehicle: saline with Tween-80
structure (smiles),measurement,setting,value
CC(C)(C)C1CCCCC1,T/C,[1],94 % of control
same,T/C,[2],98 % of control
same,T/C,[3],95 % of control
same,T/C,[4],102 % of control
same,T/C,"dose: 200.0 mg/kg/injection, schedule: Q01DX009 (ip), vehicle: Klucel (hydroxypropylcellulose) (HPC)",95 % of control
O=NN(CCCl)C(=O)NC1CCC(=O)NC1=O (stereo unspecified),T/C,"dose: 0.5 mg/kg/injection, schedule: Q01DX009 (ip), vehicle: saline with Tween-80",115 % of control
same,T/C,[5],103 % of control
same,T/C,[6],185 % of control
same,T/C,[7],247 % of control
same,T/C,[8],104 % of control
N[C@H](C(=O)O)[C@@H]1CC(Cl)=NO1,T/C,"dose: 0.5 mg/kg/injection, schedule: Q01DX009 (ip), vehicle: saline",124 % of control
same,T/C,"dose: 1.0 mg/kg/injection, schedule: Q01DX009 (ip), vehicle: saline",103 % of control
same,T/C,"dose: 2.0 mg/kg/injection, schedule: Q01DX009 (ip), vehicle: saline",111 % of control
same,T/C,"dose: 4.0 mg/kg/injection, schedule: Q01DX009 (ip), vehicle: saline",115 % of control
O=C(O)/C=C/C(=O)Nc1ccc(Cl)c(Cl)c1,T/C,[1],102 % of control
same,T/C,[2],99 % of control
same,T/C,[3],98 % of control
same,T/C,[4],104 % of control
CCOC(=O)C(N)CSC(=O)NC (stereo unspecified),T/C,"dose: 25.0 mg/kg/injection, schedule: Q01DX009 (ip), vehicle: saline",105 % of control
same,T/C,"dose: 50.0 mg/kg/injection, schedule: Q01DX009 (ip), vehicle: saline",98 % of control
same,T/C,"dose: 100.0 mg/kg/injection, schedule: Q01DX009 (ip), vehicle: saline",96 % of control
same,T/C,"dose: 200.0 mg/kg/injection, schedule: Q01DX009 (ip), vehicle: saline",96 % of control
same,T/C,"dose: 400.0 mg/kg/injection, schedule: Q01DX009 (ip), vehicle: saline",113 % of control
O=c1ccn(C2OC(CO)C(O)C2O)c(=O)[nH]1 (stereo unspecified),T/C,"dose: 32.0 mg/kg/injection, schedule: Q01DX009 (ip), vehicle: Klucel (hydroxypropylcellulose) (HPC)",109 % of control
same,T/C,"dose: 64.0 mg/kg/injection, schedule: Q01DX009 (ip), vehicle: Klucel (hydroxypropylcellulose) (HPC)",96 % of control
same,T/C,"dose: 128.0 mg/kg/injection, schedule: Q01DX009 (ip), vehicle: Klucel (hydroxypropylcellulose) (HPC)",96 % of control
same,T/C,"dose: 256.0 mg/kg/injection, schedule: Q01DX009 (ip), vehicle: Klucel (hydroxypropylcellulose) (HPC)",110 % of control
same,T/C,"dose: 512.0 mg/kg/injection, schedule: Q01DX009 (ip), vehicle: Klucel (hydroxypropylcellulose) (HPC)",106 % of control
S=c1nc[nH]c2nc[nH]c12,T/C,"dose: 7.5 mg/kg/injection, schedule: Q01DX009 (ip), vehicle: Klucel (hydroxypropylcellulose) (HPC)",97 % of control
same,T/C,"dose: 15.0 mg/kg/injection, schedule: Q01DX005 (ip), vehicle: Klucel (hydroxypropylcellulose) (HPC)",98 % of control
same,T/C,"dose: 15.0 mg/kg/injection, schedule: Q01DX009 (ip), vehicle: Klucel (hydroxypropylcellulose) (HPC)",113 % of control and 87 % of control
same,T/C,"dose: 30.0 mg/kg/injection, schedule: Q01DX005 (ip), vehicle: Klucel (hydroxypropylcellulose) (HPC)",122 % of control
same,T/C,"dose: 30.0 mg/kg/injection, schedule: Q01DX009 (ip), vehicle: Klucel (hydroxypropylcellulose) (HPC)",92 % of control and 108 % of control
same,T/C,"dose: 60.0 mg/kg/injection, schedule: Q01DX005 (ip), vehicle: Klucel (hydroxypropylcellulose) (HPC)",93 % of control
same,T/C,"dose: 120.0 mg/kg/injection, schedule: Q01DX005 (ip), vehicle: Klucel (hydroxypropylcellulose) (HPC)",103 % of control
same,T/C,"dose: 240.0 mg/kg/injection, schedule: Q01DX005 (ip), vehicle: Klucel (hydroxypropylcellulose) (HPC)",95 % of control
S=P(N1CC1)(N1CC1)N1CC1,T/C,[5],106 % of control and 110 % of control and 116 % of control
same,T/C,[6],113 % of control (2×) and 116 % of control
same,T/C,[7],118 % of control and 119 % of control and 123 % of control
same,T/C,[8],100 % of control and 110 % of control
same,T/C,"dose: 16.0 mg/kg/injection, schedule: Q01DX009 (ip), vehicle: saline with Tween-80",112 % of control

# Source: PubChem BioAssay AID274 (DTP/NCI, 2004)
